We go through 58 compounds from patent US11179412B2, “Methods of treating conditions involving elevated inflammatory response” (University of Pittsburgh—Of the Commonwealth System of …, priority 2017, dated 2021).

Structures can show the parent of a compound that is named as a salt.

In one assay the test system is STING activation (IFNβ release) in iBMDMs. Put plainly: IFNβ release ELISA after STING ligand (or LPS) stimulation, iBMDMs. In kind it is cell-based, mouse. The note with it: 16 h, 10 µM. The gist of the method: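 iBMDMs were stimulated with a STING ligand such as 3′3′-cGAMP, or with LPS. Secreted IFNβ in culture medium was measured by commercial mouse or human IFNβ ELISA.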
(In an ELISA, binding on a coated surface is turned into a signal by an enzyme label.)
For `C=C1C[C@@H]2[C@H](CC[C@]3(C)C(=O)CC[C@@H]23)[C@@]2(C)C=CC(=O)C=C12` [Exemestane], the “fold increase in IFN-β release” value is 1.11 fold.

Consider `CCCCCCCCc1ccc(CCC(N)(CO)CO)cc1` [Fingolimod (FTY720) HCl, Fingolimod], for which the “fold increase in IFN-β release” value is given as 0.77 fold.

Staying with this assay, now noted: iBMDMs; 3′3′-cGAMP 10 μg/ml, 16 hours; compound 10 μM.
For `C[C@]12C=CC(=O)N[C@@H]1CC[C@@H]1[C@@H]2CC[C@]2(C)[C@@H](C(=O)Nc3cc(C(F)(F)F)ccc3C(F)(F)F)CC[C@@H]12` [Dutasteride], the “fold increase in IFN-β release” value is 0.51 fold.

Regarding `O=C(N/N=C/c1ccc(O)c(O)c1)c1cc2ccccc2cc1O` [Dynasore], the “fold increase in IFN-β release” value stood at 1.62 fold.

For `CC(C)C[C@H](NC(=O)[C@H]1O[C@@H]1C(=O)O)C(=O)NCCCCN=C(N)N` [E-64], the “fold increase in IFN-β release” value was 0.17 fold.

On to `CCn1c2ccccc2c2cc(Nc3ccnc(NCCCN4CCOCC4)n3)ccc21` [EHop-016], for which the “fold increase in IFN-β release” value was 1.69 fold.

Turning to `CCN(c1cc(-c2ccc(CN3CCOCC3)cc2)cc(C(=O)NCc2c(C)cc(C)[nH]c2=O)c1C)C1CCOCC1` [EPZ-6438], the “fold increase in IFN-β release” value is listed as 1.03 fold.

Take `COc1cccc(C=NCCN=Cc2cccc(OC)c2[O-])c1[O-].[Cl-].[Mn+3]` [EUK 134]: the “fold increase in IFN-β release” value came to 1.10 fold.

As for `NC(=O)C1CCCc2c1[nH]c1ccc(Cl)cc21` (stereo not shown) [EX 527 (Selisistat), Selisistat], the “fold increase in IFN-β release” value worked out at 0.98 fold.

As for `COc1cc2c(cc1Cc1cccc(Cl)c1F)c(=O)c(C(=O)O)cn2[C@H](CO)C(C)C` [Elvitegravir (GS-9137, JTK-303), Elvitegravir], the “fold increase in IFN-β release” value was 2.56 fold.

For `CCCCCCCCCCCC1=C(O)C(=O)C=C(O)C1=O` [Embelin], the “fold increase in IFN-β release” value turned out to be 0.17 fold.

As to `OC[C@H]1O[C@@H](c2ccc(Cl)c(Cc3ccc(O[C@H]4CCOC4)cc3)c2)[C@H](O)[C@@H](O)[C@@H]1O` [Empagliflozin (BI 10773), Empagliflozin], the “fold increase in IFN-β release” value is 0.57 fold.

As for `C[C@H](N[C@@H](CCc1ccccc1)C(=O)O)C(=O)N1CCC[C@H]1C(=O)O.O.O` [Enalaprilat Dihydrate], the “fold increase in IFN-β release” value is on record as 2.71 fold.

`CCN(CC)C(=O)/C(C#N)=C/c1cc(O)c(O)c([N+](=O)[O-])c1` [Entacapone]: the “fold increase in IFN-β release” value was determined as 0.76 fold.

Regarding `CNC(=O)c1ccc(N2C(=S)N(c3ccc(C#N)c(C(F)(F)F)c3)C(=O)C2(C)C)cc1F` [Enzalutamide (MDV3100), Enzalutamide], the “fold increase in IFN-β release” value was found to be 0.50 fold.

Take `Cn1cc(C2=C(c3cn(C4CCN(Cc5ccccn5)CC4)c4ccccc34)C(=O)NC2=O)c2ccccc21` [Enzastaurin (LY317615), Enzastaurin]: the “fold increase in IFN-β release” value is 1.02 fold.

For `CCOc1ccccc1-n1c(C(C)N2CCN(C(=O)COc3ccc(Cl)cc3)CC2)nc2ccccc2c1=O` (stereo not shown) [Erastin], the “fold increase in IFN-β release” value was determined as 4.52 fold.

Consider `COc1ccc2nc([S@@+]([O-])Cc3ncc(C)c(OC)c3C)[nH]c2c1` [Esomeprazole Sodium], for which the “fold increase in IFN-β release” value turned out to be 0.95 fold.

In the case of `CCc1cccc2c3c([nH]c12)C(CC)(CC(=O)O)OCC3` (stereo not shown) [Etodolac], the “fold increase in IFN-β release” value was 0.35 fold.

For `CCOC(=O)c1cncn1[C@H](C)c1ccccc1` [Etomidate], the “fold increase in IFN-β release” value is given as 0.86 fold.

Turning to `CO[C@H]1C[C@@H]2CC[C@@H](C)[C@@](O)(O2)C(=O)C(=O)N2CCCC[C@H]2C(=O)O[C@H]([C@H](C)C[C@@H]2CC[C@@H](OCCO)[C@H](OC)C2)CC(=O)[C@H](C)/C=C(\C)[C@@H](O)[C@@H](OC)C(=O)[C@H](C)C[C@H](C)/C=C/C=C/C=C/1C` [Everolimus (RAD001), Everolimus], the “fold increase in IFN-β release” value is recorded as 1.01 fold.

Turning to `Cc1nc(C(=O)NCC(=O)O)c(O)c2ccc(Oc3ccccc3)cc12` [FG-4592], the “fold increase in IFN-β release” value is listed as 0.73 fold.

In the case of `CC1=C(C(=O)OC2CCCCC2)C(c2ccc([N+](=O)[O-])cc2)C2=C(CC(C)(C)CC2=O)N1` (stereo not shown) [FLI-06], the “fold increase in IFN-β release” value amounted to 2.06 fold.

As for `CCOC(=O)C1=C(C)NC(C)=C(C(=O)OC)C1c1cccc(Cl)c1Cl` (stereo not shown) [Felodipine], the “fold increase in IFN-β release” value is 0.69 fold.

As to `CCOC(=O)c1ccc(NC2CCCCC2)c(N)c1` [Ferrostatin-1 (Fer-1), Ferrostatin-1], the “fold increase in IFN-β release” value amounted to 2.54 fold.

With `O=C(Nc1nc2cccc(-c3ccc(CN4CCS(=O)(=O)CC4)cc3)n2n1)C1CC1` [Filgotinib (GLPG0634), Filgotinib], the “fold increase in IFN-β release” value worked out at 2.35 fold.

With `CC(C)(C)NC(=O)[C@H]1CC[C@H]2[C@@H]3CC[C@H]4NC(=O)C=C[C@]4(C)[C@H]3CC[C@]12C` [Finasteride], the “fold increase in IFN-β release” value came out at 0.85 fold.

`CC(C)n1c(/C=C/C(O)CC(O)CC(=O)O)c(-c2ccc(F)cc2)c2ccccc21` (stereo not shown) [Fluvastatin Sodium]: the “fold increase in IFN-β release” value is listed as 0.32 fold.

In the case of `COCCCC/C(=N\OCCN)c1ccc(C(F)(F)F)cc1` [Fluvoxamine maleate], the “fold increase in IFN-β release” value stood at 1.80 fold.

For `COc1ccc(C[C@@H](C)NC[C@H](O)c2ccc(O)c(NC=O)c2)cc1.COc1ccc(C[C@@H](C)NC[C@H](O)c2ccc(O)c(NC=O)c2)cc1.O=C(O)/C=C/C(=O)O` [Formoterol Hemifumarate], the “fold increase in IFN-β release” value came out at 1.76 fold.

Consider `C=C[C@@]1(C)CC(=O)[C@]2(O)[C@@]3(C)[C@@H](O)CCC(C)(C)[C@@H]3[C@H](O)[C@H](OC(C)=O)[C@@]2(C)O1` [Forskolin], for which the “fold increase in IFN-β release” value amounted to 0.81 fold.

Turning to `COc1cc(Nc2ncc(F)c(Nc3ccc4c(n3)N(COP(=O)(O)O)C(=O)C(C)(C)O4)n2)cc(OC)c1OC` [Fostamatinib (R788), Fostamatinib], the “fold increase in IFN-β release” value was 0.69 fold.

Take `C[C@]12CC[C@@H]3c4ccc(O)cc4C[C@@H](CCCCCCCCC[S+]([O-])CCCC(F)(F)C(F)(F)F)[C@H]3[C@@H]1CC[C@@H]2O` (stereo partly shown) [Fulvestrant]: the “fold increase in IFN-β release” value amounted to 0.52 fold.

As to `CN[C@@H](C)C(=O)N[C@H](C(=O)N1CCC[C@H]1C(=O)Nc1snnc1-c1ccccc1)C1CCCCC1` [GDC-0152], the “fold increase in IFN-β release” value is given as 1.79 fold.

Take `CS(=O)(=O)N1CCN(Cc2cc3nc(-c4cccc5[nH]ncc45)nc(N4CCOCC4)c3s2)CC1` [GDC-0941]: the “fold increase in IFN-β release” value is 2.13 fold.

Take `CNc1nc(Nc2cn(C(C)(C)C#N)nc2C)ncc1C(F)(F)F` [GNE-0877]: the “fold increase in IFN-β release” value is 1.32 fold.

For `CCNc1nc(Nc2cc(F)c(C(=O)N3CCOCC3)cc2OC)ncc1C(F)(F)F` [GNE-7915], the “fold increase in IFN-β release” value was 2.41 fold.

Consider `CNc1nc(Nc2cnn([C@H]3CCN(C4COC4)C[C@@H]3F)c2Cl)ncc1C(F)(F)F` [GNE-9605], for which the “fold increase in IFN-β release” value came out at 1.10 fold.

As to `NC(=O)c1cccc(-c2cc(Nc3ccc(OC(F)(F)F)cc3)ncn2)c1` [GNF-2], the “fold increase in IFN-β release” value stood at 0.56 fold.

As to `O=C(NCCO)c1cccc(-c2cc(Nc3ccc(OC(F)(F)F)cc3)ncn2)c1` [GNF-5], the “fold increase in IFN-β release” value turned out to be 2.94 fold.

For the compound `CC1=C(C(=O)Nc2cc3cn[nH]c3cc2F)C(c2ccc(C(F)(F)F)cc2)CC(=O)N1` (stereo not shown) [GSK429286A], the “fold increase in IFN-β release” value came out at 2.79 fold.

As for `C[C@@H](Oc1cc(-n2cnc3ccc(CN4CCN(C)CC4)cc32)sc1C(N)=O)c1ccccc1C(F)(F)F` [GSK461364], the “fold increase in IFN-β release” value came out at 0.21 fold.

As to `CCn1c(-c2nonc2N)nc2c(C#CC(C)(C)O)ncc(OC[C@H]3CCCNC3)c21` [GSK690693], the “fold increase in IFN-β release” value is 1.12 fold.

Turning to `CC(C)c1noc(N2CCC(COc3ccc(-c4ccc(S(C)(=O)=O)cc4)nc3)CC2)n1` [GSK1292263], the “fold increase in IFN-β release” value is reported as 2.58 fold.

Consider `CCc1cc(Nc2nccc(-c3c(-c4ccc(OC)c(C(=O)Nc5c(F)cccc5F)c4)nc4ccccn34)n2)c(OC)cc1N1CCC(N2CCN(S(C)(=O)=O)CC2)CC1` [GSK1904529A], for which the “fold increase in IFN-β release” value was 1.05 fold.

For `Cn1cc(-c2ccc3c(c2)CCN3C(=O)Cc2cccc(C(F)(F)F)c2)c2c(N)ncnc21` [GSK2606414], the “fold increase in IFN-β release” value came to 1.40 fold.

Turning to `Cc1cccc(CC(=O)N2CCc3c2ccc(-c2cn(C)c4ncnc(N)c24)c3F)n1` [GSK2656157], the “fold increase in IFN-β release” value is 1.58 fold.

On to `CCOC(=O)CCNc1cc(N2CCc3ccccc3CC2)nc(-c2ccccn2)n1.Cl` [GSK J4 HCl], for which the “fold increase in IFN-β release” value is reported as 0.40 fold.

For `Cc1cc(SCc2sc(-c3ccc(C(F)(F)F)c(F)c3)nc2C)ccc1OCC(=O)O` [GW0742], the “fold increase in IFN-β release” value worked out at 0.13 fold.

Consider `COc1ccc(COc2ccc(Cc3cnc(N)nc3N)cc2OC)cc1` [GW2580], for which the “fold increase in IFN-β release” value turned out to be 1.21 fold.

`Cl.O=C(O)Cc1cccc(OCCCN(Cc2cccc(C(F)(F)F)c2Cl)CC(c2ccccc2)c2ccccc2)c1` [GW3965 HCl]: the “fold increase in IFN-β release” value came out at 0.74 fold.

On to `CC(C)c1onc(-c2c(Cl)cccc2Cl)c1COc1ccc(/C=C/c2cccc(C(=O)O)c2)c(Cl)c1` [GW4064], for which the “fold increase in IFN-β release” value came to 1.26 fold.

For `O=C(O)CCc1ccc(NCc2cccc(Oc3ccccc3)c2)cc1` [GW9508], the “fold increase in IFN-β release” value came to 0.80 fold.

As for `O=C(Nc1ccccc1)c1cc([N+](=O)[O-])ccc1Cl` [GW9662], the “fold increase in IFN-β release” value was 2.50 fold.

Take `CC(C)c1cc(-c2n[nH]c(=O)n2-c2ccc3c(ccn3C)c2)c(O)cc1O` [Ganetespib (STA-9090), Ganetespib]: the “fold increase in IFN-β release” value stood at 1.80 fold.

Regarding `C[C@@H]1C(=O)O[C@H]2C[C@@]34[C@H]5C[C@@H](C(C)(C)C)[C@]36[C@@H](OC(=O)[C@@H]6O)O[C@@]4(C(=O)O5)[C@]21O` [Ginkgolide A], the “fold increase in IFN-β release” value came out at 2.14 fold.

As to `CC1C(=O)OC2C(O)C34C5CC(C(C)(C)C)C36C(OC(=O)C6O)OC4(C(=O)O5)C12O` (stereo not shown) [Ginkgolide B], the “fold increase in IFN-β release” value was determined as 1.44 fold.

As for `Cc1ccc(S(=O)(=O)NC(=O)NN2CC3CCCC3C2)cc1` (stereo not shown) [Gliclazide], the “fold increase in IFN-β release” value is recorded as 1.93 fold.
